Experimental data from ChEMBL document CHEMBL5126518, “Quercetin derivatives: Drug design, development, and biological activities, a review” (Eur J Med Chem, 2022).
Converted amounts (≈) assume the structure as drawn.

Tests used:
Assay type in all cases: functional
[1] = test system: Candida albicans; experiment: Antifungal activity against Candida albicans 475/15 assessed as fungal growth inhibition measured after 24 hrs by microdilution assay
[2] = test system: Candida albicans; experiment: Antifungal activity against Candida albicans 527/14 assessed as fungal growth inhibition measured after 24 hrs by microdilution assay
[3] = test system: Candida albicans; experiment: Antifungal activity against Candida albicans 10/15 assessed as fungal growth inhibition measured after 24 hrs by microdilution assay
[4] = test system: Candida albicans; experiment: Antifungal activity against Candida albicans 13/15 assessed as fungal growth inhibition measured after 24 hrs by microdilution assay
[5] = test system: Candida albicans; experiment: Antibiofilm activity against Candida albicans 475/15 assessed as inhibition of biofilm formation measured after 24 hrs by crystal violet staining based analysis relative to control; set-up: scale not given: the % may be the effect or the level left

MIC [1]: 37.5 µg/mL (≈ 80.8 µM)
MIC [2]: 37.5 µg/mL (≈ 80.8 µM)
MIC [3]: 37.5 µg/mL (≈ 80.8 µM)
MIC [4]: 37.5 µg/mL (≈ 80.8 µM)
Compound: O=c1c(O[C@@H]2O[C@H](CO)[C@@H](O)[C@H](O)[C@H]2O)c(-c2ccc(O)c(O)c2)oc2cc(O)cc(O)c12 [ISOQUERCETIN]
Activity [5]: 76%
